According to patent US10800824B2, “AIMP1 protein fragment and skin-protecting composition containing same as active ingredient” (NEOMICS CO., LTD., priority 2016, dated 2020):
No end group written: not given here.

Columns and labels:
[1] = test system: normal epithelium cells (vero); assay: Cytotoxicity assay (Cell Counting Kit-8 assay) on normal epithelium cells; assay type: cell-based; details: 10 μM, 24 hours, CCK-8, FIG. 3
Description: To confirm the proliferation and cytotoxicity of the fibroblasts, the CCK-8 assay (Cell Counting Kit-8 assay) of Dojindo Molecular Technologies (Japan) was performed according to the manufacturer's instructions.
First, human foreskin fibroblast (3,000 cells/well; Promocell) and normal epithelium cells (vero; 3,000 cells/well) were cultured in DMEM medium containing 10% serum in 96-well plates for 12 hours, and then cultured in serum-free medium for about 3 hours. Then, Neo-Pep polypeptide (SEQ ID NO: 1) and fragments thereof (SEQ ID NOS: 2 to 4) were added to the DMEM medium with the concentration of 10 μM each, and then cultured for 24 hours.
Then, 10 μl of CCK-8 solution (Dojindo Molecular Technologies, Japan) was added to each well of the medium, and the absorbance was analyzed at 450 nm using a microplate reader according to the manufacturer's instructions.

Raw 264.7 cells = assay: TNF-alpha ELISA assay (TNF-alpha secretion); assay type: cell-based; details: 10 μM, 6 hours, FIG. 4
Description: Raw 264.7 cells (ATCC TIB-71; 3,000 cells/well) were cultured for 12 hours in DMEM medium containing 10% serum in a 96-well plate, and then cultured in serum-free medium for about 3 hours. Then, Neo-Pep polypeptide (SEQ ID NO: 1) and its fragments (SEQ ID NOS: 2 to 4) were added to the DMEM medium with the concentration of 10 μM each, and then cultured for 6 hours.
Then, the medium was collected and centrifuged at 1,000 g for 10 minutes, and secreted TNF-α was detected using a TNF-α ELISA assay (BD Biosciences, USA) according to the manufacturer's instructions.

Row | Sequence | epithelium cell viability versus control group [1] | secreted TNF-alpha level versus control group (Raw 264.7 cells)
1 | IEYLKQQVSLLKEKA [Polypeptide S1400, IEYLKQQVSLLKEKA] | slightly lower | very low and similar to that of control group
2 | AVLKRLEQKGAEADQIIEYLKQQVSLLKEKAILQATLREEK [Neo-Pep] | – | very low and similar to that of control group
3 | KGAEADQIIEYLKQQ [Polypeptide S1300, KGAEADQIIEYLKQQ] | – | very low and similar to that of control group
4 | RLEQKGAEADQIIEY [Polypeptide S1200, RLEQKGAEADQIIEY] | – | very low and similar to that of control group
